The assay addresses T1, human RIPK1 (1-375) (Homo sapiens, UniProt Q13546).
T1 construct: human RIPK1 (1-375) gene; GST; made in house; host or cells: Sf-9 insect cells
T1 sequence (Q13546 1-375): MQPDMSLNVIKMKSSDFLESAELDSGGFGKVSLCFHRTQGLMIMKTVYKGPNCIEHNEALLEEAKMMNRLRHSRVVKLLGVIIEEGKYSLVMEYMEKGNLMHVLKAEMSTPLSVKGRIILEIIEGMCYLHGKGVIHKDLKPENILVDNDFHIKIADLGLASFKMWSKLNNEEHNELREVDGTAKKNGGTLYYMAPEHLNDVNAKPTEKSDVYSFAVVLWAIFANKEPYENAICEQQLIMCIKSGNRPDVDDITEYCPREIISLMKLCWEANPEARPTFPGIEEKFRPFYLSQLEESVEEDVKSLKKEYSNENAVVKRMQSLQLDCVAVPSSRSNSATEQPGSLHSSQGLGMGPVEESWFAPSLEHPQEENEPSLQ
As to the kind of experiment: Human RIPK1 enzyme inhibitory effect (ADP-Glo Kinase Assay). Format: biochemical. Conditions: well without enzyme = 100% inhibition; for human RIPK1 enzyme inhibitory effect at 10 μM (% inhibition): 10 μM test compound; for inhibition at 10 µM: read-out: human RIPK1 enzyme inhibitory effect at 10 μM (% inhibition), 10 μM test compound. The method, boiled down: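 ADP-Glo luminescence read-out of ADP formed over 120 min at room temperature after adding 0.6 mM ATP solution (stock concentration). Compound and Sf-9-expressed, GST-purified RIPK1 (1-375) were first incubated together for 20 min in HEPES pH 7.5 buffer with MgCl2, Tween-20 and DTT.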

Where a name gives a salt, the structure may show the parent alone.

In the case of `CN1C(=O)C(N2CCc3c(nn(Cc4ccccc4)c3Cl)C2=O)CCc2cnccc21` (centres unmarked) [Example 99, 3-(2-benzyl-3-chloro-7-oxo-2,4,5,7-tetrahydro-6H-pyrazolo[3,4-c]pyridin-6-yl)-1-methyl-1,3,4,5-tetrahydro-2H-pyrido[4,3-b]azepin-2-one], the “human RIPK1 enzyme inhibitory effect at 10 μM (% inhibition)” value stood at 98%.

Turning to `CN1C(=O)C(N2CCc3c(nn(Cc4ccccc4)c3Cl)C2=O)CCc2ncccc21` (centres unmarked) [Example 65, 7-(2-benzyl-3-chloro-7-oxo-2,4,5,7-tetrahydro-6H-pyrazolo[3,4-c]pyridin-6-yl)-5-methyl-5,7,8,9-tetrahydro-6H-pyrido[3,2-b]azepin-6-one], the “human RIPK1 enzyme inhibitory effect at 10 μM (% inhibition)” value was 99%.

With `CN1C(=O)C(N2CCc3c(nn(Cc4ccccc4)c3Cl)C2=O)CCc2cccnc21` (centres unmarked) [Example 94, 7-(2-benzyl-3-chloro-7-oxo-2,4,5,7-tetrahydro-6H-pyrazolo[3,4-c]pyridin-6-yl)-9-methyl-5,6,7,9-tetrahydro-8H-pyrido[2,3-b]azepin-8-one], the “human RIPK1 enzyme inhibitory effect at 10 μM (% inhibition)” value came to 101%.

With `CNC(=O)c1ccc2c(c1)OC[C@H](N1CCc3c(nn(Cc4ccccc4F)c3Cl)C1=O)C(=O)N2C` [Example 47, (3S)-3-(3-chloro-2-(2-fluorobenzyl)-7-oxo-2,4,5,7-tetrahydro-6H-pyrazolo[3,4-c]pyridin-6-yl)-N,5-dimethyl-4-oxo-2,3,4,5-tetrahydro-1,5-benzoxazepine-8-carboxamide], the inhibition at 10 µM was 101%.

With `O=C1Nc2ccccc2CCC1N1Cc2cn(Cc3ccccc3)nc2C1=O` (centres unmarked) [Example 4, 3-(2-benzyl-6-oxo-2,6-dihydropyrrolo[3,4-c]pyrazol-5(4H)-yl)-1,3,4,5-tetrahydro-2H-1-benzazepin-2-one], the inhibition at 10 µM stood at 80%.

For `CN1C(=O)[C@@H](N2CCc3cn(Cc4ccccc4F)nc3C2=O)COc2ccc(C#N)cc21` [Example 77, (3S)-3-(2-(2-fluorobenzyl)-7-oxo-2,4,5,7-tetrahydro-6H-pyrazolo[3,4-c]pyridin-6-yl)-5-methyl-4-oxo-2,3,4,5-tetrahydro-1,5-benzoxazepine-7-carbonitrile], the inhibition at 10 µM came out at 101%.

With `CN1C(=O)[C@@H](N2CCc3cn(Cc4ccccc4)nc3C2=O)COc2ccc(C#N)cc21` [Example 14, (3S)-3-(2-benzyl-7-oxo-2,4,5,7-tetrahydro-6H-pyrazolo[3,4-c]pyridin-6-yl)-5-methyl-4-oxo-2,3,4,5-tetrahydro-1,5-benzoxazepine-7-carbonitrile], the inhibition at 10 µM stood at 100%.

For `CN1C(=O)C(n2ccc3cn(Cc4ccccc4)nc3c2=O)CCc2ccccc21` (centres unmarked) [Example 6, 3-(2-benzyl-7-oxo-2,7-dihydro-6H-pyrazolo[3,4-c]pyridin-6-yl)-1-methyl-1,3,4,5-tetrahydro-2H-1-benzazepin-2-one], the inhibition at 10 µM was 96%.

For the compound `CN1C(=O)[C@@H](N2CCc3c(nn(Cc4ccccc4)c3-c3cnn(C)c3)C2=O)COc2ccccc21` [Example 169, (3S)-3-(2-benzyl-3-(1-methyl-1H-pyrazol-4-yl)-7-oxo-2,4,5,7-tetrahydro-6H-pyrazolo[3,4-c]pyridin-6-yl)-5-methyl-2,3-dihydro-1,5-benzoxazepin-4(5H)-one], the inhibition at 10 µM is 80%.

As for `CN1C(=O)[C@@H](N2CCc3cn(Cc4ccccc4)nc3C2=O)COc2ccc(C(N)=O)cc21` [Example 72, (3S)-3-(2-benzyl-7-oxo-2,4,5,7-tetrahydro-6H-pyrazolo[3,4-c]pyridin-6-yl)-5-methyl-4-oxo-2,3,4,5-tetrahydro-1,5-benzoxazepine-7-carboxamide], the inhibition at 10 µM amounted to 99%.

On to `CN1C(=O)[C@@H](N2CCc3c(nn(Cc4ccccc4)c3C#N)C2=O)COc2ccccc21` [Example 12, 2-benzyl-6-((3S)-5-methyl-4-oxo-2,3,4,5-tetrahydro-1,5-benzoxazepin-3-yl)-7-oxo-4,5,6,7-tetrahydro-2H-pyrazolo[3,4-c]pyridine-3-carbonitrile], for which the inhibition at 10 µM was 100%.

Regarding `CN1C(=O)[C@@H](N2CCc3c(nn(Cc4ccccc4)c3CO)C2=O)COc2ccccc21` [Example 52, (3S)-3-(2-benzyl-3-(hydroxymethyl)-7-oxo-2,4,5,7-tetrahydro-6H-pyrazolo[3,4-c]pyridin-6-yl)-5-methyl-2,3-dihydro-1,5-benzoxazepin-4(5H)-one], the inhibition at 10 µM is 98%.

With `N#Cc1ccc2c(c1)OC[C@H](N1CCc3c(nn(Cc4ccccc4)c3Cl)C1=O)C(=O)N2` [Example 83, (3S)-3-(2-benzyl-3-chloro-7-oxo-2,4,5,7-tetrahydro-6H-pyrazolo[3,4-c]pyridin-6-yl)-4-oxo-2,3,4,5-tetrahydro-1,5-benzoxazepine-8-carbonitrile], the inhibition at 10 µM amounted to 92%.

As for `CN1C(=O)[C@@H](N2CCc3cn(Cc4cccc(S(C)(=O)=O)c4)nc3C2=O)COc2ccccc21` [Example 166, (3S)-5-methyl-3-(2-(3-(methylsulfonyl)benzyl)-7-oxo-2,4,5,7-tetrahydro-6H-pyrazolo[3,4-c]pyridin-6-yl)-2,3-dihydro-1,5-benzoxazepin-4(5H)-one], the inhibition at 10 µM turned out to be 88%.

For the compound `CN1C(=O)[C@@H](N2CCc3[nH]c(Cc4ccccc4)nc3C2=O)COc2ccccc21` [Example 55, (3S)-3-(2-benzyl-4-oxo-1,4,6,7-tetrahydro-5H-imidazo[4,5-c]pyridin-5-yl)-5-methyl-2,3-dihydro-1,5-benzoxazepin-4(5H)-one trifluoroacetate], the inhibition at 10 µM was determined as 96%.

For `CN1C(=O)[C@@H](N2CCc3c(nn(Cc4ccccc4)c3Cl)C2=O)COc2cc(C(N)=O)ccc21` [Example 64, (3S)-3-(2-benzyl-3-chloro-7-oxo-2,4,5,7-tetrahydro-6H-pyrazolo[3,4-c]pyridin-6-yl)-5-methyl-4-oxo-2,3,4,5-tetrahydro-1,5-benzoxazepine-8-carboxamide], the inhibition at 10 µM was 101%.

With `CN1C(=O)C(N2CCc3c(nn(Cc4ccccc4)c3Cl)C2=O)CCc2ccncc21` (centres unmarked) [Example 95, 3-(2-benzyl-3-chloro-7-oxo-2,4,5,7-tetrahydro-6H-pyrazolo[3,4-c]pyridin-6-yl)-1-methyl-1,3,4,5-tetrahydro-2H-pyrido[3,4-b]azepin-2-one], the “human RIPK1 enzyme inhibitory effect at 10 μM (% inhibition)” value amounted to 101%.

Consider `CN1C(=O)[C@@H](N2CCc3c(nn(Cc4ccccc4)c3Cl)C2=O)COc2cc(N3CCOCC3)ccc21` [Example 142, (3S)-3-(2-benzyl-3-chloro-7-oxo-2,4,5,7-tetrahydro-6H-pyrazolo[3,4-c]pyridin-6-yl)-5-methyl-8-(morpholin-4-yl)-2,3-dihydro-1,5-benzoxazepin-4(5H)-one], for which the inhibition at 10 µM was found to be 100%.

Turning to `CN1C(=O)C(N2CCc3c(nn(Cc4ccccc4)c3Cl)C2=O)CCc2ccncc21` (centres unmarked) [Example 101, 3-(2-benzyl-3-chloro-7-oxo-2,4,5,7-tetrahydro-6H-pyrazolo[3,4-c]pyridin-6-yl)-1-methyl-1,3,4,5-tetrahydro-2H-pyrido[3,4-b]azepin-2-one], the inhibition at 10 µM is 97%.

With `CN1C(=O)[C@@H](N2CCn3cc(Cc4ccccc4)nc3C2=O)COc2ccccc21` [Example 7, (3S)-3-(2-benzyl-8-oxo-5,6-dihydroimidazo[1,2-a]pyrazin-7(8H)-yl)-5-methyl-2,3-dihydro-1,5-benzoxazepin-4(5H)-one], the inhibition at 10 µM turned out to be 91%.

(Values after patent US10787462B2, “Heterocyclic compound” (TAKEDA PHARMACEUTICAL COMPANY LIMITED, priority 2015, dated 2020).)
